Assay results from ChEMBL document CHEMBL6114991, “Design, synthesis, and biological evaluation of novel quinoline carboxylic acid based styryl/alkyne hybrid molecule as a potent anti-adipogenic and antidyslipidemic agent via activation of Wnt/β-catenin pathway” (Eur J Med Chem, 2025).
Active and inactive are the calls of the source. No cut-off for these calls is given here.

Assays:
3T3-L1 [1] = assay: Anti-adipogenic activity in mouse 3T3-L1 cells assessed as reduction in lipid accumulation at 10 uM by microscopic analysis; assay type: functional, cell-based
3T3-L1 [2] = assay: Anti-adipogenic activity in mouse 3T3-L1 cells at 20 uM relative to control; assay type: functional
3T3-L1 [3] = assay: Cytotoxicity against mouse 3T3-L1 cells assessed as cell viability at 20 uM incubated for 48 hrs by MTT assay; assay type: toxicity, cell-based; details: 3t3-l1, 48 h
3T3-L1 [4] = assay: Anti-adipogenic activity in mouse 3T3-L1 cells assessed as suppression of adipogenesis at 20 uM measured for 72 hrs by oil red O staining based analysis; assay type: functional
3T3-L1 [5] = assay: Anti-adipogenic activity in MDI-induced mouse 3T3-L1 cells assessed as suppression of adipogenesis at 0.3 uM by oil red O staining based analysis; assay type: functional, cell-based; details: time 72.0 hrs
3T3-L1 [6] = assay: Cytotoxicity against mouse 3T3-L1 cells assessed as cell viability at 30 uM incubated for 48 hrs by MTT assay; assay type: toxicity, cell-based; details: 3t3-l1, 48 h
3T3-L1 [7] = assay: Anti-adipogenic activity in mouse 3T3-L1 cells assessed as suppression of adipogenesis at 30 uM measured for 72 hrs by oil red O staining based analysis; assay type: functional, cell-based

| Structure (SMILES) | Activity (3T3-L1 [3]) | Activity (3T3-L1 [2]; time 72.0 hrs) | further results |
| --- | --- | --- | --- |
| Cc1cc([N+](=O)[O-])ccc1NS(=O)(=O)c1cc(Cl)ccc1Cl |  |  | Activity (3T3-L1 [1]): Active |
| Cc1ccc(/C=C/c2ccc(-c3cc(C(=O)O)c4cc(Cl)ccc4n3)cc2)cc1 | Toxic |  | Activity (3T3-L1 [2]; time 72 hrs): 76% |
| CCOC(=O)c1cc(-c2ccc(/C=C/c3ccc(C)cc3)cc2)nc2ccc(F)cc12 | Toxic | inactive |  |
| Cc1ccc(/C=C/c2ccc(-c3cc(C(=O)O)c4cc(C)cc(Cl)c4n3)cc2)cc1 |  | inactive |  |
| Cc1cccc(C#Cc2ccc(-c3cc(C(=O)O)c4ccccc4n3)cc2)c1 | Toxic |  | Activity (3T3-L1 [2]; time 72 hrs): 68% |
| O=C(O)c1cc(-c2ccc(/C=C/c3ccccc3)cc2)nc2ccccc12 |  | inactive |  |
| COC(=O)c1cc(-c2ccc(/C=C/c3ccc(C)cc3)cc2)nc2ccc(F)cc12 | Toxic | inactive |  |
| CCCCCOC(=O)c1cc(-c2ccc(/C=C/c3ccc(C)cc3)cc2)nc2ccc(F)cc12 | Toxic | inactive |  |
| CCCCOC(=O)c1cc(-c2ccc(/C=C/c3ccc(C)cc3)cc2)nc2ccc(F)cc12 | Toxic | inactive |  |
| COc1ccc2nc(-c3ccc(/C=C/c4ccc(C)cc4)cc3)cc(C(=O)O)c2c1 | Non-toxic | inactive | Activity (3T3-L1 [4]): 70% |
| Cc1ccc(/C=C/c2ccc(-c3cc(C(=O)O)c4cc(OC(F)(F)F)ccc4n3)cc2)cc1 |  | inactive |  |
| Cc1ccc(/C=C/c2ccc(-c3cc(C(=O)OC(C)C)c4cc(F)ccc4n3)cc2)cc1 | Toxic | inactive |  |
| COc1ccc(C#Cc2ccc(-c3cc(C(=O)O)c4ccccc4n3)cc2)cc1 | Toxic |  | Activity (3T3-L1 [2]; time 72 hrs): 69% |
| CCCCCCOC(=O)c1cc(-c2ccc(/C=C/c3ccc(C)cc3)cc2)nc2ccc(F)cc12 | Toxic | inactive |  |
| O=C(O)c1ccc(/C=C/c2ccc(-c3cc(C(=O)O)c4ccccc4n3)cc2)cc1 | Toxic | inactive |  |
| O=C(O)c1cc(-c2ccc(C#Cc3ccc(F)cc3)cc2)nc2ccccc12 | Toxic | inactive |  |
| O=C(O)c1cc(-c2ccc(/C=C/c3ccccn3)cc2)nc2ccccc12 |  | inactive |  |
| O=C(O)c1cc(-c2ccc(/C=C/c3ccc4ccccc4c3)cc2)nc2ccccc12 |  | inactive |  |
| CC(C)(C)c1ccc(C#Cc2ccc(-c3cc(C(=O)O)c4ccccc4n3)cc2)cc1 | Non-toxic |  | Activity (3T3-L1 [5]): Active; Activity (3T3-L1 [4]): 70%; Activity (3T3-L1 [2]; time 72 hrs): 69%; Activity (3T3-L1 [6]): Toxic |
| CC(C)(C)c1ccc(/C=C/c2ccc(-c3cc(C(=O)O)c4ccccc4n3)cc2)cc1 | Non-toxic |  | Activity (3T3-L1 [4]): 70%; Activity (3T3-L1 [2]; time 72 hrs): 67% |
| Cc1ccc(/C=C/c2ccc(-c3cc(C(=O)O)c4cc(C)ccc4n3)cc2)cc1 |  | inactive |  |
| Cc1ccc(/C=C/c2ccc(-c3cc(C(=O)O)c4cccc(Cl)c4n3)cc2)cc1 |  | inactive |  |
| CCCOC(=O)c1cc(-c2ccc(/C=C/c3ccc(C)cc3)cc2)nc2ccc(F)cc12 | Toxic | inactive |  |
| O=C(O)c1cc(-c2ccc(/C=C/c3ccncc3)cc2)nc2ccccc12 |  | inactive | Activity (3T3-L1 [5]): Active; Activity (3T3-L1 [6]): Toxic |
| CCCCCCCCOC(=O)c1cc(-c2ccc(/C=C/c3ccc(C)cc3)cc2)nc2ccc(F)cc12 | Toxic | inactive |  |
| Cc1ccc(C#Cc2ccc(-c3cc(C(=O)O)c4ccccc4n3)cc2)cc1 |  |  | Activity (3T3-L1 [2]; time 72 hrs): 74% |
| Cc1ccc(/C=C/c2ccc(-c3cc(C(=O)O)c4ccccc4n3)cc2)cc1 | Non-toxic |  | Activity (3T3-L1 [5]): inactive; Activity (3T3-L1 [4]): 70%; Activity (3T3-L1 [2]; time 72 hrs): 68%; Activity (3T3-L1 [7]): Active; Activity (3T3-L1 [6]): Toxic |
| O=C(O)c1cc(-c2ccc(C#Cc3ccccc3)cc2)nc2ccccc12 |  | inactive |  |
| O=C(O)c1cc(-c2ccc(/C=C/c3ccc(Cl)cc3)cc2)nc2ccccc12 |  | inactive |  |
